Reference: US6603031B1, “Vitamin D derivatives with cyclic substructures in the side chains, process and intermediate products for their production, and the use for the production of pharmaceutical agents” (Schering Aktiengesellschaft, priority 1999, dated 2003)
Like-named read-outs stand apart in the source and are kept apart here.

Legend:
HL 60 cells = assay: differentiation induction of HL 60 cells to macrophages (NBT reduction); type: cell-based, human; conditions: 96 hours incubation, reference calcitriol
Protocol: The differentiation-stimulating action of calcitriol analogues is also detected quantitatively.
It is known in the literature [D. J. Mangelsdorf et al., J. Cell. Biol. 98: 391 (1984)] that the treatment of human leukemia cells (promyelocyte cell line HL 60) in vitro with calcitriol induces the differentiation of cells to macrophages.
HL 60 cells are cultivated in tissue culture medium (RPMI 10% fetal calf serum) at 37° C. in an atmosphere of 5% CO2 in air.
For substance testing, the cells are centrifuged off, and 2.0×10^5 cells/ml in phenol red-free tissue culture medium is taken up. The test substances are dissolved in ethanol and diluted with tissue culture medium without phenol red to the desired concentration. The dilution stages are mixed with the cell suspension at a ratio of 1:10, and 100 μl each of this cell suspension that is mixed with substance is pipetted into an indentation of a 96-hole plate. For control, a cell suspension is mixed analogously with the solvent.
After incubation for 96 hours at 37° C. in 5% CO2 in air, 100 μl of an NBT-TPA solution (nitro blue tetrazolium (NBT), final concentration in the batch of 1 mg/ml, tetradecanoyl phorbolmyristate-13-acetate (TPA), final concentration in the batch of 2×10^−7 mol/l) is pipetted into each indentation of the 96-hole plate in the cell suspension.
By incubation for 2 hours at 37° C. and 5% CO2 in air, NBT is reduced to insoluble formazan because of the intracellular oxygen radical release, stimulated by TPA, in the cells that are differentiated to macrophages.
To complete the reaction, the indentations of the 96-hole plate are suctioned off, and the cells are affixed to the bottom of the plate by adding methanol and dried after affixing. To dissolve the intracellular formazan crystals that are formed, 100 μl of potassium hydroxide (2 mol/l) and 100 μl of dimethyl sulfoxide are pipetted into each indentation and ultrasonically treated for 1 minute. The concentration of formazan is measured by spectrophotometry at 650 nm.
As a yardstick for the differentiation induction of HL 60 cells to macrophages, the concentration of formed formazan applies.

[1] = acute hypercalcemic action after one-time subcutaneous administration (serum calcium); conditions: male rats, reference calcitriol
Protocol: (§1) To determine the acute hypercalcemic action of various calcitriol derivatives, the test that is described below is carried out:
(§2) During the testing time, the rats are kept in special cages to determine the excretion-of water-and mineral substances. Urine is collected in 2 fractions (0-16 hours and 16-22 hours). An oral dose of calcium (0.1 mmol of calcium in 6.5% alpha-hydroxypropyl-cellulose, 5 ml/animal) replaces at 1600 hours the calcium intake that is lacking by food deprivation. At the end of the test, the animals are killed by decapitation and exsanguinated to determine the serum-calcium values. For the primary screen test in vivo, an individual standard dose (200 μg/kg) is tested. For selected substances, the result is supported by establishing a dose-effect relation.
(§3) The significance of differences occurring between substance groups and controls and between test substance and reference substance are supported with suitable statistical processes.

[2] = rat, in vivo, sc
Protocol: as §1, §2, §3

vitamin D receptor = target: T1, vitamin D receptor (Sus scrofa, UniProt A3RGC1); assay: calcitriol-receptor test (competition with 3H-calcitriol); conditions: protein extract from intestines of juvenile pigs
T1 sequence (A3RGC1 1-427): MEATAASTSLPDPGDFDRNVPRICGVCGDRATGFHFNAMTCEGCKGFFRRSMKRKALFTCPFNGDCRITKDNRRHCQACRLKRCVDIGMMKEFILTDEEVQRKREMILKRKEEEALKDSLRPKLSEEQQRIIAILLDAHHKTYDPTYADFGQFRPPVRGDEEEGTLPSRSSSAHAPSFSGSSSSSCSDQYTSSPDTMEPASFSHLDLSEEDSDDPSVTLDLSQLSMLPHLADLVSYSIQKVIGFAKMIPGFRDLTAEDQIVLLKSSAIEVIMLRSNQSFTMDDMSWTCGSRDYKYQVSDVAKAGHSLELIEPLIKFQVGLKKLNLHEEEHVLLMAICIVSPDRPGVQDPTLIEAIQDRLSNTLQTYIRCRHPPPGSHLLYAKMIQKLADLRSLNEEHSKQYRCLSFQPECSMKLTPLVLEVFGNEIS
Protocol: The vitamin D activity of the substances according to the invention is determined with the aid of the calcitriol-receptor test. It is carried out using a protein extract from the intestines of juvenile pigs. […] To this end, 250 μl of a charcoal-dextran suspension is fed to each test tube and incubated at 4° C. for 20 minutes. Then, the samples are centrifuged at 10,000 g for 5 minutes at 40° C. The supernatant is decanted and measured in a β-counter after 1 hour of equilibration in Picofluor 15™.
The competition curves that are obtained at various concentrations of test substance as well as of reference substance (unlabeled calcitriol) at constant concentration of the reference substance (^3H-calcitriol) are placed in relation to one another, and a competition factor (KF) is determined.
It is defined as a quotient of the concentrations of the respective test substance and the reference substance, which are necessary for 50% competition:
KF=Concentration of test substance at 50% competition/Concentration of reference substance at 50% competition

SMILES	DR (HL 60) (dose ratio test substance/reference substance for comparable semi-maximum actions) (HL 60 cells)	DR (Ca) (dose ratio for hypercalcemia, test substance dose/reference substance dose for comparable actions) [1]	DR (Ca) (dose ratio for hypercalcemia, test substance dose/reference substance dose for comparable actions) [2]	KF (competition factor: concentration of test substance / reference substance at 50% competition) (vitamin D receptor)
C=C1/C(=C\C=C2/CCC[C@]3(C)[C@@H]([C@H](C)CCCC(C)(C)O)CC[C@@H]23)C[C@@H](O)C[C@@H]1O [Calcitriol, 1,25-dihydroxy vitamin D3, reference compound]	1	1		
C[C@H](CCC[C@H](O)c1cccs1)[C@H]1CC[C@H]2/C(=C/C=C3C[C@@H](O)C[C@H](O)C3)CCC[C@]12C [55b, (7E)-(1R,3R,24aS)-24a-(thien-2-yl)-24a-homo-19-nor-9,10-secochola-5,7-diene-1,3,24a-triol]	8		>100	5
C[C@H](CCCC(=O)c1cccs1)[C@H]1CC[C@H]2/C(=C/C=C3C[C@@H](O)C[C@H](O)C3)CCC[C@]12C [compound 57, (7E)-(1R,3R)-1,3-Dihydroxy-24a-(thien-2-yl)-24a-homo-19-nor-9,10-secochola-5,7-dien-24a-one]	2		>350	12
C=C1C(=CC=C2CCCC3(C)C2CCC3C(C)CCCC(O)c2cocn2)CC(O)CC1O [20a, (5Z,7E)-(1S,3R,24aR)-24a-(Oxazol-4-yl)-24a-homo-9,10-secochola-5,7,10(19)-triene-1,3,24a-triol]	2	>50		3
CC(CCCC(O)c1cocn1)C1CCC2C(=CC=C3CC(O)CC(O)C3)CCCC21C [16a, (7E)-(1R,3R,24aR)-24a-(Oxazol-4-yl)-24a-homo-19-nor-9,10-secochola-5,7-diene-1,3,24a-triol]	5		>30	5
C=C1C(=CC=C2CCCC3(C)C2CCC3C(C)CCC(O)c2nccs2)CC(O)CC1O [217a, (5Z,7E)-(1S,3R,24S)-24-(Thiazol-2-yl)-9,10-secochola-5,7,10(19)-triene-1,3,24-triol]	100		>300	7
